Activity calls are given as the source filed them. The rule behind the calls is not given here.
Molecular target: Neuropeptides B/W receptor type 1 (Homo sapiens) (UniProt P48145)
Assay: GPR7 receptor antagonists, late-stage follow-up, cell-based, fluorescence, percent inhibition (AID 588562)
Conditions: GPR7-expressing cells, fluorescence antagonist assay; at 20 µM; hits give high values

Sequence of Neuropeptides B/W receptor type 1 (Homo sapiens) (P48145 whole entry, looked up): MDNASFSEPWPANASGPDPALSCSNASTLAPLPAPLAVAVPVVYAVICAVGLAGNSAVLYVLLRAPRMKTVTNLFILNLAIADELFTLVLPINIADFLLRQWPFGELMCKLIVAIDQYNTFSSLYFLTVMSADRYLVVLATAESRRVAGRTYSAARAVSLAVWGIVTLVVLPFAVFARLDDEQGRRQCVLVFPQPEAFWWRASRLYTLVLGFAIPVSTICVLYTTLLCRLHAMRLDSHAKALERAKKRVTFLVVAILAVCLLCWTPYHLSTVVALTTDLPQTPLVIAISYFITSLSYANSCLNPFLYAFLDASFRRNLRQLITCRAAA

| SMILES | inhibition |
| --- | --- |
| COc1ccc(Oc2c(N3CCN(C(=O)OC(C)(C)C)CC3)cnn(-c3ccc(C(C)C)cc3)c2=O)cc1 | 15% (inactive) |
| COc1ccc(Oc2c(C(=O)N(C)C)cnn(-c3ccc(C(C)C)cc3)c2=O)cc1 | 7% (inactive) |
| COc1ccc(Oc2c(N)cnn(-c3ccc(C(F)(F)F)cc3)c2=O)cc1 | 31% (inactive) |
| COc1ccc(Oc2c(N3CCOCC3)cnn(-c3ccc(C(C)C)cc3)c2=O)cc1 | 37% (inactive) |
| COc1ccc(Oc2c(C(=O)O)cnn(-c3ccc(C(C)C)cc3)c2=O)cc1 | -16% (inactive) |
| COc1ccc(Oc2c(N)cnn(-c3ccc(C(C)C)cc3)c2=O)cc1 | -10% (inactive) |
| CC(C)c1ccc(-n2ncc(Cl)c(Oc3cc(C(C)(C)C)cc(C(C)(C)C)c3)c2=O)cc1 | -3% (inactive) |
| COc1ccc(Oc2c(-n3nnc(C)c3C)cnn(-c3ccc(C(C)C)cc3)c2=O)cc1 | 15% (inactive) |
| COc1ccc(Oc2c(N3CCN(C)CC3)cnn(-c3ccc(C(C)C)cc3)c2=O)cc1 | -25% (inactive) |
| COc1ccc(COc2c(Cl)cnn(-c3ccc(C(C)C)cc3)c2=O)cc1 | 27% (inactive) |
| CC(C)c1ccc(-n2ncc(Cl)c(Oc3ccc(C(F)(F)F)cc3)c2=O)cc1 | 55% (inactive) |
| COc1ccc(Oc2c(NC(C)=O)cnn(-c3ccc(C(C)C)cc3)c2=O)cc1 | 15% (inactive) |
| CC(C)c1ccc(-n2ncc(NCc3ccccc3)c(Cl)c2=O)cc1 | -18% (inactive) |
| COc1ccc(Oc2ccnn(-c3ccc(C)cc3)c2=O)cc1 | 24% (inactive) |
| CCOc1ccc(Oc2c(Cl)cnn(-c3ccc(C(C)C)cc3)c2=O)cc1 | 46% (inactive) |
